How the values were obtained:
[1] = biological target: cAMP-dependent protein kinase catalytic subunit PRKX (Homo sapiens) (UniProt P51817); conditions: Compound concentration 1000.0 nM
[2] = biological target: Activin receptor type-1 (Homo sapiens) (UniProt Q04771); conditions: Compound concentration 1000.0 nM
[3] = biological target: Cyclin-dependent kinase 15 (Homo sapiens) (UniProt Q96Q40); conditions: Compound concentration 1000.0 nM
[4] = biological target: Rho-associated protein kinase 2 (Homo sapiens) (UniProt O75116); conditions: Compound concentration 1000.0 nM
[5] = tested on: Epidermal growth factor receptor (Homo sapiens), P00533 [UNDEFINED MUTATION]; conditions: Compound concentration 1000.0 nM
[6] = biological target: Wee1-like protein kinase 2 (Homo sapiens) (UniProt P0C1S8); conditions: Compound concentration 1000.0 nM
[7] = biological target: cAMP-dependent protein kinase catalytic subunit beta (Homo sapiens) (UniProt P22694); conditions: Compound concentration 1000.0 nM
[8] = biological target: Tyrosine-protein kinase SYK (Homo sapiens) (UniProt P43405); conditions: Compound concentration 1000.0 nM
[9] = biological target: Cyclin-dependent kinase 11B (Homo sapiens) (UniProt P21127); conditions: Compound concentration 1000.0 nM
[10] = biological target: Serine/threonine-protein kinase 32B (Homo sapiens) (UniProt Q9NY57); conditions: Compound concentration 1000.0 nM
[11] = biological target: Dual specificity mitogen-activated protein kinase kinase 7 (Homo sapiens) (UniProt O14733); conditions: Compound concentration 1000.0 nM
[12] = biological target: Ephrin type-A receptor 4 (Homo sapiens) (UniProt P54764); conditions: Compound concentration 1000.0 nM
[13] = biological target: BMP-2-inducible protein kinase (Homo sapiens) (UniProt Q9NSY1); conditions: Compound concentration 1000.0 nM
[14] = tested on: Epidermal growth factor receptor (Homo sapiens), P00533 [UNDEFINED MUTATION]; conditions: Compound concentration 1000.0 nM; remark: listed apart in the source
[15] = biological target: Serine/threonine-protein kinase Nek10 (Homo sapiens) (UniProt Q6ZWH5); conditions: Compound concentration 1000.0 nM
[16] = biological target: Wee1-like protein kinase (Homo sapiens) (UniProt P30291); conditions: Compound concentration 1000.0 nM
[17] = biological target: Serine/threonine-protein kinase MARK2 (Homo sapiens) (UniProt Q7KZI7); conditions: Compound concentration 1000.0 nM
[18] = tested on: ALK tyrosine kinase receptor (Homo sapiens), Q9UM73 [L1196M]; conditions: Compound concentration 1000.0 nM
[19] = biological target: Tyrosine-protein kinase JAK3 (Homo sapiens) (UniProt P52333); conditions: Compound concentration 1000.0 nM
[20] = tested on: Receptor-type tyrosine-protein kinase FLT3 (Homo sapiens), P36888 [D835H]; conditions: Compound concentration 1000.0 nM
[21] = biological target: Serine/threonine-protein kinase NLK (Homo sapiens) (UniProt Q9UBE8); conditions: Compound concentration 1000.0 nM
[22] = biological target: Mitogen-activated protein kinase kinase kinase 5 (Homo sapiens) (UniProt Q99683); conditions: Compound concentration 1000.0 nM
[23] = tested on: Epidermal growth factor receptor (Homo sapiens), P00533 [G719C]; conditions: Compound concentration 1000.0 nM
[24] = biological target: Serine/threonine-protein kinase STK11 (Homo sapiens) (UniProt Q15831); conditions: Compound concentration 1000.0 nM
[25] = biological target: Serine/threonine-protein kinase 24 (Homo sapiens) (UniProt Q9Y6E0); conditions: Compound concentration 1000.0 nM
[26] = biological target: 5-hydroxytryptamine receptor 1B (Homo sapiens) (UniProt P28222); conditions: Compound concentration 10.0 uM
[27] = biological target: Protein-tyrosine kinase 6 (Homo sapiens) (UniProt Q13882); conditions: Compound concentration 1000.0 nM
[28] = biological target: SRSF protein kinase 1 (Homo sapiens) (UniProt Q96SB4); conditions: Compound concentration 1000.0 nM
[29] = biological target: AP2-associated protein kinase 1 (Homo sapiens) (UniProt Q2M2I8); conditions: Compound concentration 1000.0 nM
[30] = tested on: Receptor-type tyrosine-protein kinase FLT3 (Homo sapiens), P36888 [D835Y]; conditions: Compound concentration 1000.0 nM
[31] = biological target: Dual specificity mitogen-activated protein kinase kinase 4 (Homo sapiens) (UniProt P45985); conditions: Compound concentration 1000.0 nM
[32] = biological target: Serine/threonine-protein kinase DCLK2 (Homo sapiens) (UniProt Q8N568); conditions: Compound concentration 1000.0 nM
[33] = biological target: D(2) dopamine receptor (Homo sapiens) (UniProt P14416); conditions: Compound concentration 10.0 uM
[34] = biological target: Histamine H2 receptor (Homo sapiens) (UniProt P25021); conditions: Compound concentration 10.0 uM
[35] = biological target: Ephrin type-A receptor 2 (Homo sapiens) (UniProt P29317); conditions: Compound concentration 1000.0 nM
[36] = biological target: Tyrosine-protein kinase Yes (Homo sapiens) (UniProt P07947); conditions: Compound concentration 1000.0 nM
[37] = biological target: cGMP-dependent protein kinase 1 (Homo sapiens) (UniProt Q13976); conditions: Compound concentration 1000.0 nM
[38] = biological target: Angiopoietin-1 receptor (Homo sapiens) (UniProt Q02763); conditions: Compound concentration 1000.0 nM
[39] = biological target: Vascular endothelial growth factor receptor 3 (Homo sapiens) (UniProt P35916); conditions: Compound concentration 1000.0 nM
[40] = tested on: Phosphatidylinositol 4,5-bisphosphate 3-kinase catalytic subunit alpha isoform (Homo sapiens), P42336 [H1047Y]; conditions: Compound concentration 1000.0 nM
[41] = biological target: Mitogen-activated protein kinase kinase kinase 20 (Homo sapiens) (UniProt Q9NYL2); conditions: Compound concentration 1000.0 nM
[42] = tested on: Mast/stem cell growth factor receptor Kit (Homo sapiens), P10721 [A829P]; conditions: Compound concentration 1000.0 nM
[43] = biological target: Calcium/calmodulin-dependent protein kinase type II subunit beta (Homo sapiens) (UniProt Q13554); conditions: Compound concentration 1000.0 nM
[44] = biological target: Tyrosine-protein kinase FRK (Homo sapiens) (UniProt P42685); conditions: Compound concentration 1000.0 nM
[45] = tested on: Epidermal growth factor receptor (Homo sapiens), P00533 [UNDEFINED MUTATION]; conditions: Compound concentration 1000.0 nM; remark: listed apart in the source

Chain of BMP-2-inducible protein kinase (Homo sapiens) (Q9NSY1 whole entry, looked up): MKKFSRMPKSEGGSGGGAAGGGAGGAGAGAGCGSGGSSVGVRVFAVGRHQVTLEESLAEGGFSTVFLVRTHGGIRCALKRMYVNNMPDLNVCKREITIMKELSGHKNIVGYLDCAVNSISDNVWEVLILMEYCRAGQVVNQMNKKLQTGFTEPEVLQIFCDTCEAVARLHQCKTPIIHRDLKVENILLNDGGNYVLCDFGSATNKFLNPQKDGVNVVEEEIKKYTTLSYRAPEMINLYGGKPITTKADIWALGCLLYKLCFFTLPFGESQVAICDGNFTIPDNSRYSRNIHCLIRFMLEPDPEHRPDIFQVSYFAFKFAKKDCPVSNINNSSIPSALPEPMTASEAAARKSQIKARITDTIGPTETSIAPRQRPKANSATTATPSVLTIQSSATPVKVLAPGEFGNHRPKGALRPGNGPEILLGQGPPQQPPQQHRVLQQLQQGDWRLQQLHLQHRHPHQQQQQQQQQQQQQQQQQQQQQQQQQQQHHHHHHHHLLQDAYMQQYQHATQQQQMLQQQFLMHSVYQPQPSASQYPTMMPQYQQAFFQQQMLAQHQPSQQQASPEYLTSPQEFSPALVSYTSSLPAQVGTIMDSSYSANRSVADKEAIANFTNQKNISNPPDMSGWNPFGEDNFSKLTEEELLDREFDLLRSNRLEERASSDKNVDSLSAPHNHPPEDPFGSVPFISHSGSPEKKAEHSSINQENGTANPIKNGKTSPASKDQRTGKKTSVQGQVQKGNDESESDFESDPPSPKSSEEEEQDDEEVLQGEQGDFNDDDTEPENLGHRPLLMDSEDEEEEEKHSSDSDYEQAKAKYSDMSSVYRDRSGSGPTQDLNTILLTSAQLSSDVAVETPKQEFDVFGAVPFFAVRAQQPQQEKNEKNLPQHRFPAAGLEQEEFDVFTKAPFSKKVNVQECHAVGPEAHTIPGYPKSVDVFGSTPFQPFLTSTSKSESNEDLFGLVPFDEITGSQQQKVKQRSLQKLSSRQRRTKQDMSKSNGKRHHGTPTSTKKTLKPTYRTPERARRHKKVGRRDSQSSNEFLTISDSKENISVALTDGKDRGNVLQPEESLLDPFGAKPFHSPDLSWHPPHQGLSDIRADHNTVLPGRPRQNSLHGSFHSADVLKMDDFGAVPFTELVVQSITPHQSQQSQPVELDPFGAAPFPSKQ
Chain of Tyrosine-protein kinase FRK (Homo sapiens) (P42685 whole entry): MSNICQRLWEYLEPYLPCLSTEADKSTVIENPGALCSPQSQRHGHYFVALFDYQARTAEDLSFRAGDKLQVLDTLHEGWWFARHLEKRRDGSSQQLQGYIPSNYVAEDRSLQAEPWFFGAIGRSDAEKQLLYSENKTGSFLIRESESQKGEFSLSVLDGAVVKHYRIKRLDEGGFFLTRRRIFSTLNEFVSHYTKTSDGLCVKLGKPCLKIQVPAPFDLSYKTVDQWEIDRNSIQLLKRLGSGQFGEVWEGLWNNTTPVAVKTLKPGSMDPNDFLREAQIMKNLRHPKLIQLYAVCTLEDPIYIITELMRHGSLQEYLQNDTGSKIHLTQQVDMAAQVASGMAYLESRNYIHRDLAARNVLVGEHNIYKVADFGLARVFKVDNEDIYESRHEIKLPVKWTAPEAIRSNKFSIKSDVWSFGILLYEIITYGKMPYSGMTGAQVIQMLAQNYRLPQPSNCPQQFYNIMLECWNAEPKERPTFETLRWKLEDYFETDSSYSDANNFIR
Chain of Serine/threonine-protein kinase 32B (Homo sapiens) (Q9NY57 whole entry): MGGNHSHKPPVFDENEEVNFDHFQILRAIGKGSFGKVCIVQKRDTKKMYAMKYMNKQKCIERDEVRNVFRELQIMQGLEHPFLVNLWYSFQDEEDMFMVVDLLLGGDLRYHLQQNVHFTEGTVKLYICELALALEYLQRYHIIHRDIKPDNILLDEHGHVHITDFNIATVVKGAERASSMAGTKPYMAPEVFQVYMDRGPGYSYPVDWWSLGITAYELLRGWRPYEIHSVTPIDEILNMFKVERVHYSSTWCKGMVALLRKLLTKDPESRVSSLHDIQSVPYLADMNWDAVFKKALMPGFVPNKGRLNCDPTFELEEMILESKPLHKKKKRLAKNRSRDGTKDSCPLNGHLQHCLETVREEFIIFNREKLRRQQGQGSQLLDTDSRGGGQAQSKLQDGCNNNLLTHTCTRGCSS
Chain of Histamine H2 receptor (Homo sapiens) (P25021 whole entry): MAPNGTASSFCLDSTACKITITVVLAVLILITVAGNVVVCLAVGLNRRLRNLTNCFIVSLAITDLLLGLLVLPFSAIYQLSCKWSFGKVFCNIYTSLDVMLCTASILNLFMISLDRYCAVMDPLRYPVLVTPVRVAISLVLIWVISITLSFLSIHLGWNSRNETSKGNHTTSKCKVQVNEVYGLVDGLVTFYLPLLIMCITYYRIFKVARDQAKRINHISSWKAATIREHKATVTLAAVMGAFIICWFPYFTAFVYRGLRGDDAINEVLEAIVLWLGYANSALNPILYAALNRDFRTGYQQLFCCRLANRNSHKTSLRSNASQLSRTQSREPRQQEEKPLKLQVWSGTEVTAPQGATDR
Chain of cGMP-dependent protein kinase 1 (Homo sapiens) (Q13976 whole entry): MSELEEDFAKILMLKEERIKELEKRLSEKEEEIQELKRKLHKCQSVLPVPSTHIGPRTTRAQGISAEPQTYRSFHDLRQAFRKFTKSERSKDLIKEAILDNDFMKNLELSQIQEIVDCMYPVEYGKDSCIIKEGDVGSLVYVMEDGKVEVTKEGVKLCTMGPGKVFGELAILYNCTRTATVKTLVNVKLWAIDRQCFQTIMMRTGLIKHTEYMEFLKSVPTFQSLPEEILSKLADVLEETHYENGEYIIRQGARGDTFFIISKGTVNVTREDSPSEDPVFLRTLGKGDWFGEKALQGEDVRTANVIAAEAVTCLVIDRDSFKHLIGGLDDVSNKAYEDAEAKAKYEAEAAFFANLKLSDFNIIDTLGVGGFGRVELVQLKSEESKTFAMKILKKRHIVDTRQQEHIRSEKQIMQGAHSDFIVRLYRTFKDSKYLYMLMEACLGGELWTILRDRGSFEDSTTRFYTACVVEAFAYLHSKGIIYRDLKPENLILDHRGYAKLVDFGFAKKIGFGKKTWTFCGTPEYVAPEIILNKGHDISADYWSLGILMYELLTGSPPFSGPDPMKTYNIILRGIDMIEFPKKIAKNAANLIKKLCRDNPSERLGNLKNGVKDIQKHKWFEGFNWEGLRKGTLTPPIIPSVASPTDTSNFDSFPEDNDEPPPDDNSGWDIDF
Chain of Mitogen-activated protein kinase kinase kinase 5 (Homo sapiens) (Q99683 whole entry): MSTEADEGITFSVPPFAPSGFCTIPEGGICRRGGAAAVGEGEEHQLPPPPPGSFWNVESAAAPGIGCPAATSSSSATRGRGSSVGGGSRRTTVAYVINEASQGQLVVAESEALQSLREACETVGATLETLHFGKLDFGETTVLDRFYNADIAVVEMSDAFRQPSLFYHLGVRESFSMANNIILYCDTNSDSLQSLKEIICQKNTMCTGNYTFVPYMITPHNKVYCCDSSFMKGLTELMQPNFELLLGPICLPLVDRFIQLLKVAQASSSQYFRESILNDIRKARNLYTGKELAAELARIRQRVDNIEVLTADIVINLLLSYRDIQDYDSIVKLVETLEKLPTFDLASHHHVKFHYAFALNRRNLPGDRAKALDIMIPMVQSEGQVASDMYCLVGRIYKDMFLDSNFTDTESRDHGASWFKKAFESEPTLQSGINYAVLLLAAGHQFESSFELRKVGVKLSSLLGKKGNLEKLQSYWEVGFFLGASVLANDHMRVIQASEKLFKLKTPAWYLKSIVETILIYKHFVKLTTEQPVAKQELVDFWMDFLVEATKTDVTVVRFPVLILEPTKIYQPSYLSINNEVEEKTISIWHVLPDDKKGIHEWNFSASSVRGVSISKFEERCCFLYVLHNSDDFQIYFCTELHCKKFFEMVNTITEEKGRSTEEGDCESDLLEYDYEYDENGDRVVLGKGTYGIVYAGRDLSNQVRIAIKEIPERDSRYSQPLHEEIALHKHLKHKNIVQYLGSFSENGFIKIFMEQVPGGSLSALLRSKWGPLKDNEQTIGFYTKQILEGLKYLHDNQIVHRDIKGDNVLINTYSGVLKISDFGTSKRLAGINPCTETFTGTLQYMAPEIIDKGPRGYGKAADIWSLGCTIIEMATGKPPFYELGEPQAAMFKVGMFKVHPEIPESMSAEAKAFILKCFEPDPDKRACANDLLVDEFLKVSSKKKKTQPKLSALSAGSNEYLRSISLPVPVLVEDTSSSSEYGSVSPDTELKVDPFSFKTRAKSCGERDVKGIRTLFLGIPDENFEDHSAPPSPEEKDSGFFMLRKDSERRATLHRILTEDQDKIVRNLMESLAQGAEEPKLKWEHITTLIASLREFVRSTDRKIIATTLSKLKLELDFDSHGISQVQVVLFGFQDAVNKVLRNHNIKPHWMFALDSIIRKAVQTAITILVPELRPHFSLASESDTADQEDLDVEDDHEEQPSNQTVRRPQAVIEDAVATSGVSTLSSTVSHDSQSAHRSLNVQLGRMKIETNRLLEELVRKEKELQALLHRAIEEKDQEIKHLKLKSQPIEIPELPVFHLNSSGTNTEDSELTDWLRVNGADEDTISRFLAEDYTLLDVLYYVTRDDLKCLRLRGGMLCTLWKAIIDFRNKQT
Chain of Activin receptor type-1 (Homo sapiens) (Q04771 whole entry): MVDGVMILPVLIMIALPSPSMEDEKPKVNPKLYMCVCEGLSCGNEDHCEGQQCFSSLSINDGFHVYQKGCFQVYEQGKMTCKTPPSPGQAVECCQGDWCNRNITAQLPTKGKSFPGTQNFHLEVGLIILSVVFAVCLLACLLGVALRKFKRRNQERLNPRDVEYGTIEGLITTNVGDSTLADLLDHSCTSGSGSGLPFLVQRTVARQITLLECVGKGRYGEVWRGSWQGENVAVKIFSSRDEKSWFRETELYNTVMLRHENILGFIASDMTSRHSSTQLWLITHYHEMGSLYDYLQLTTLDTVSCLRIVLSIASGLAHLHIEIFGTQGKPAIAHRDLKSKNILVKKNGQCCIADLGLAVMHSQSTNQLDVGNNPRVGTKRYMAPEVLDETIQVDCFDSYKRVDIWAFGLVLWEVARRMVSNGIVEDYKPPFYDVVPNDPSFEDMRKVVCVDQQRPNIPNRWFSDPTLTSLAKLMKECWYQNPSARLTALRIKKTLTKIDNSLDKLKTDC

O=C(Nc1cccnn1)N1CC(C/C=C/c2cncc(Oc3ccc(C(F)(F)F)cn3)n2)C1
inactive: residual activity [1] 92% | residual activity [2] 92% | residual activity [3] 100% | residual activity [4] 90% | residual activity [5] 95% | residual activity [6] 100% | residual activity [7] 100% | residual activity [8] 100% | residual activity [9] 100% | residual activity [10] 100% | residual activity [11] 91% | residual activity [12] 100% | residual activity [13] 100% | residual activity [14] 100% | residual activity [15] 100% | residual activity [16] 100% | residual activity [17] 80% | residual activity [18] 82% | residual activity [19] 100% | residual activity [20] 100% | residual activity [21] 100% | residual activity [22] 98% | residual activity [23] 100% | residual activity [24] 64% | residual activity [25] 98% | inhibition [26] 4.8% | residual activity [27] 91% | residual activity [28] 82% | residual activity [29] 100% | residual activity [30] 100% | residual activity [31] 74% | residual activity [32] 100% | inhibition [33] 13.7% | inhibition [34] -3.96% | residual activity [35] 100% | residual activity [36] 100% | residual activity [37] 100% | residual activity [38] 84% | residual activity [39] 100% | residual activity [40] 100% | residual activity [41] 100% | residual activity [42] 59% | residual activity [43] 100% | residual activity [44] 82% | residual activity [45] 100%

O=C(Nc1cccnn1)N1CCC(=Cc2cccc(Oc3ccc(C(F)(F)F)cn3)c2)CC1
inactive: residual activity [1] 87% | residual activity [2] 92% | residual activity [3] 100% | residual activity [4] 100% | residual activity [5] 100% | residual activity [6] 77% | residual activity [7] 100% | residual activity [8] 100% | residual activity [9] 100% | residual activity [10] 82% | residual activity [11] 100% | residual activity [12] 100% | residual activity [13] 100% | residual activity [14] 83% | residual activity [15] 100% | residual activity [16] 97% | residual activity [17] 100% | residual activity [18] 100% | residual activity [19] 100% | residual activity [20] 88% | residual activity [21] 100% | residual activity [22] 100% | residual activity [23] 100% | residual activity [24] 100% | residual activity [25] 100% | inhibition [26] 24.4% | residual activity [27] 100% | residual activity [28] 97% | residual activity [29] 74% | residual activity [30] 100% | residual activity [31] 100% | residual activity [32] 81% | inhibition [33] 1.84% | inhibition [34] 17.3% | residual activity [35] 81% | residual activity [36] 100% | residual activity [37] 100% | residual activity [38] 94% | residual activity [39] 80% | residual activity [40] 82% | residual activity [41] 95% | residual activity [42] 96% | residual activity [43] 89% | residual activity [44] 100% | residual activity [45] 68%

From ChEMBL document CHEMBL4507297, “Data for DCP probe PF-04457845” (2021)
